Measurements reported in patent US4593104A, “2-halo-N-(azole-1-yl-methyl)-substituted acetanilides” (BASF Aktiengesellschaft, priority 1976, dated 1986).

What was measured:
Stell. med. [1] = assay: preemergence treatment in the greenhouse, % damage; assay type: in vivo
Source text: (§1) The vessels employed were plastic flowerpots having a volume of 300 cm^3; the substrate was a sandy loam containing about 1.5% humus. The seeds of the test plants (see Table 1) were sown shallow, and separated according to species. In the case of Cyperus esculentus, pregerminated tubers were planted. In the preemergence treatment, the active ingredients were then immediately applied to the surface of the soil. They were suspended or emulsified in water as the vehicle, and sprayed through atomizing nozzles. After the agents had been applied, the vessels were lightly sprinkler-irrigated to set germination and growth going, and to activate the chemical agents. The vessels were then covered with transparent plastic hoods until the plants had taken root. This cover ensured uniform germination of the test plants (to the extent that this was not impaired by the chemicals), and prevented readily volatile substances from evaporating.
(§2) For postemergence treatment, the plants were first grown to a height of from 3 to 10 cm, depending on their habit, before treated. Hoods were not placed on the pots. The experiments were set up in the greenhouse, hotter areas (25° to 40° C.) being preferred for heat-loving species, and 15° to 30° C. for plants from moderate climates. The experiments were carried out for from 4 to 6 weeks. During this period the plants were tended and their reaction to the various treatments was assessed. The following tables contain the substances investigated, the application rates in kg/ha of active ingredient, and the test plant species. Assessments were made on a 0 to 100 scale, 0 denoting no damage or normal emergence, and 100 denoting no emergence or complete destruction of at least the visible plant parts.

Amar. retro. = assay: preemergence treatment in the greenhouse, % damage; assay type: in vivo
Source text: as §1, §2

Alopec. myosur. [2] = assay: preemergence treatment in the greenhouse, % damage; assay type: in vivo
Source text: as §1, §2

Matric. spp. [3] = assay: preemergence treatment in the greenhouse, % damage; assay type: in vivo
Source text: as §1, §2

Setaria spp. [4] = assay: preemergence treatment in the greenhouse, % damage; assay type: in vivo
Source text: as §1, §2

Sorgh. halep. = assay: preemergence treatment in the greenhouse, % damage; assay type: in vivo
Source text: as §1, §2

Echin. c.g. = assay: preemergence treatment in the greenhouse, % damage; assay type: in vivo
Source text: as §1, §2

Euph. gen. = assay: preemergence treatment in the greenhouse, % damage; assay type: in vivo
Source text: as §1, §2

Cyp. diff. = assay: preemergence treatment in the greenhouse, % damage; assay type: in vivo
Source text: as §1, §2

Glyc. max = assay: preemergence treatment in the greenhouse, % damage; assay type: in vivo, Glycine max
Source text: as §1, §2

Gossyp. hirs. = assay: preemergence treatment in the greenhouse, % damage; assay type: in vivo, Gosspyium hirsutum
Source text: as §1, §2

Cyper. escul. [5] = assay: preemergence treatment in the greenhouse, % damage; assay type: in vivo, Cyperus esculentus
Source text: as §1, §2

Stell. med. [6] = assay: postemergence application in the greenhouse, % damage; assay type: in vivo
Source text: as §1, §2

Chrys. seget. = assay: as above; assay type: in vivo
Source text: as §1, §2

Alopec. myosur. [7] = assay: as above; assay type: in vivo
Source text: as §1, §2

Matric. spp. [8] = assay: as above; assay type: in vivo
Source text: as §1, §2

Avena fat. = assay: as above; assay type: in vivo
Source text: as §1, §2

Setaria spp. [9] = assay: as above; assay type: in vivo
Source text: as §1, §2

Solanum nigrum = assay: preemergence treatment in the greenhouse, % damage; assay type: in vivo
Source text: as §1, §2

Cyper. escul. [10] = assay: postemergence application in the greenhouse, % damage; assay type: in vivo, Cyperus esculentus
Source text: as §1, §2

Cc1cc(C)n(CN(C(=O)CCl)c2c(C)ccc(C)c2C)n1 [Compound 47]
% damage (Stell. med. [1]; 0.25 kg/ha): 30% | % damage (Stell. med. [1]; 0.5 kg/ha): 80% | % damage (Stell. med. [1]; 1.0 kg/ha): 100% | % damage (Amar. retro.; 0.25 kg/ha): 100% | % damage (Amar. retro.; 0.5 kg/ha): 100% | % damage (Amar. retro.; 1.0 kg/ha): 100% | % damage (Alopec. myosur. [2]; 0.25 kg/ha): 95% | % damage (Alopec. myosur. [2]; 0.5 kg/ha): 100% | % damage (Alopec. myosur. [2]; 1.0 kg/ha): 100% | % damage (Matric. spp. [3]; 0.25 kg/ha): 80% | % damage (Matric. spp. [3]; 0.5 kg/ha): 90% | % damage (Matric. spp. [3]; 1.0 kg/ha): 100% | % damage (Setaria spp. [4]; 0.25 kg/ha): 100% | % damage (Setaria spp. [4]; 0.5 kg/ha): 100% | % damage (Setaria spp. [4]; 1.0 kg/ha): 100% | % damage (Sorgh. halep.; 0.25 kg/ha): 85% | % damage (Sorgh. halep.; 0.5 kg/ha): 90% | % damage (Sorgh. halep.; 1.0 kg/ha): 95% | % damage (Echin. c.g.; 0.25 kg/ha): 95% | % damage (Echin. c.g.; 0.5 kg/ha): 95% | % damage (Echin. c.g.; 1.0 kg/ha): 100% | % damage (Euph. gen.; 0.25 kg/ha): 10% | % damage (Euph. gen.; 0.5 kg/ha): 10% | % damage (Euph. gen.; 1.0 kg/ha): 20% | % damage (Cyp. diff.; 0.25 kg/ha): 100% | % damage (Cyp. diff.; 0.5 kg/ha): 100% | % damage (Cyp. diff.; 1.0 kg/ha): 100% | % damage (Glyc. max; 0.25 kg/ha): 20% | % damage (Glyc. max; 0.5 kg/ha): 20% | % damage (Glyc. max; 1.0 kg/ha): 30% | % damage (Gossyp. hirs.; 0.25 kg/ha): 0% | % damage (Gossyp. hirs.; 0.5 kg/ha): 0% | % damage (Gossyp. hirs.; 1.0 kg/ha): 0%

CCc1cccc(C)c1N(Cn1ccc(C)n1)C(=O)CCl [Compound 68]
% damage (Cyper. escul. [5]; 0.25 kg/ha): 65% | % damage (Cyper. escul. [5]; 1.0 kg/ha): 80% | % damage (Cyper. escul. [5]; 2.0 kg/ha): 80% | % damage (Stell. med. [6]; 1.0 kg/ha): 60% | % damage (Stell. med. [6]; 2.0 kg/ha): 60% | % damage (Chrys. seget.; 1.0 kg/ha): 40% | % damage (Chrys. seget.; 2.0 kg/ha): 50% | % damage (Alopec. myosur. [7]; 1.0 kg/ha): 90% | % damage (Alopec. myosur. [7]; 2.0 kg/ha): 90% | % damage (Matric. spp. [8]; 1.0 kg/ha): 80% | % damage (Matric. spp. [8]; 2.0 kg/ha): 80% | % damage (Avena fat.; 1.0 kg/ha): 90% | % damage (Avena fat.; 2.0 kg/ha): 90% | % damage (Setaria spp. [9]; 1.0 kg/ha): 90% | % damage (Setaria spp. [9]; 2.0 kg/ha): 95% | % damage (Amar. retro.; 0.25 kg/ha): 95% | % damage (Amar. retro.; 1.0 kg/ha): 100% | % damage (Amar. retro.; 2.0 kg/ha): 100% | % damage (Setaria spp. [4]; 0.25 kg/ha): 95% | % damage (Setaria spp. [4]; 1.0 kg/ha): 100% | % damage (Setaria spp. [4]; 2.0 kg/ha): 100% | % damage (Solanum nigrum; 0.25 kg/ha): 95% | % damage (Solanum nigrum; 1.0 kg/ha): 100% | % damage (Solanum nigrum; 2.0 kg/ha): 100% | % damage (Echin. c.g.; 0.25 kg/ha): 95% | % damage (Echin. c.g.; 1.0 kg/ha): 95% | % damage (Echin. c.g.; 2.0 kg/ha): 95% | % damage (Euph. gen.; 0.25 kg/ha): 10% | % damage (Euph. gen.; 1.0 kg/ha): 60% | % damage (Euph. gen.; 2.0 kg/ha): 75% | % damage (Glyc. max; 0.25 kg/ha): 0% | % damage (Glyc. max; 1.0 kg/ha): 0% | % damage (Glyc. max; 2.0 kg/ha): 10% | % damage (Cyper. escul. [10]; 1.0 kg/ha): 85% | % damage (Cyper. escul. [10]; 2.0 kg/ha): 85% | % damage (Gossyp. hirs.; 0.25 kg/ha): 0% | % damage (Gossyp. hirs.; 1.0 kg/ha): 5% | % damage (Gossyp. hirs.; 2.0 kg/ha): 5%
